# According to US11116760B2 (Gilead Sciences, Inc., priority 2018, dated 2021):
# Target: α4β7 integrin (Homo sapiens (Human), UniProt P13612+P26010)
# Test: α4β7 Integrin Cell Capture Assay
# Type: cell-based
# Details: RPMI8866 cells captured on MadCAM-1 extracellular domain-coated plate
# Chain of α4β7 integrin (P13612 34-1032): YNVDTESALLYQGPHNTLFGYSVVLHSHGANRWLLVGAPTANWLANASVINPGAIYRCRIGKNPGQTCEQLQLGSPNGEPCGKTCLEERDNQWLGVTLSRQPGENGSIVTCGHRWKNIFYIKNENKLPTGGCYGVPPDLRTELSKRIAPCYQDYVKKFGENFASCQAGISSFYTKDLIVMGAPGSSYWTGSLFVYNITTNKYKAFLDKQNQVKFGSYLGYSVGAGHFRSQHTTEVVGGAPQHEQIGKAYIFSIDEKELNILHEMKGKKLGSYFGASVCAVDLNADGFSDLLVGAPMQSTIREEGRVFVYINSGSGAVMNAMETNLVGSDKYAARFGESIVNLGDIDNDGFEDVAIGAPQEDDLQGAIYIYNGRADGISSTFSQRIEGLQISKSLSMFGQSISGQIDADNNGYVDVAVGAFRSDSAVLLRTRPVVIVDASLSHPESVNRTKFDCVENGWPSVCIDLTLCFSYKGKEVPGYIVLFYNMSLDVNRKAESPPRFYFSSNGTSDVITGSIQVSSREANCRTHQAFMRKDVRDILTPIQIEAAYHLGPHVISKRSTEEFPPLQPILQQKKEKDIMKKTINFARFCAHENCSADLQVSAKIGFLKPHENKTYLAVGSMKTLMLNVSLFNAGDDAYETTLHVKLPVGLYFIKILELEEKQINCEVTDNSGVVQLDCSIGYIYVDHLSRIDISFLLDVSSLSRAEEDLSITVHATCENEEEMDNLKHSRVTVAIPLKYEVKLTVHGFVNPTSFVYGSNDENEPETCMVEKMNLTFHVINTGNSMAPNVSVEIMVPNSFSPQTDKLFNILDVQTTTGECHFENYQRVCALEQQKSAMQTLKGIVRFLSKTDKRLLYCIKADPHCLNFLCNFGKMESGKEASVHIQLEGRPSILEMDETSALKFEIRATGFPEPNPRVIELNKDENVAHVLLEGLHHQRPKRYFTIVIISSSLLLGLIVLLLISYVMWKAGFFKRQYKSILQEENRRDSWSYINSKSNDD
# Chain of α4β7 integrin (P26010 20-798): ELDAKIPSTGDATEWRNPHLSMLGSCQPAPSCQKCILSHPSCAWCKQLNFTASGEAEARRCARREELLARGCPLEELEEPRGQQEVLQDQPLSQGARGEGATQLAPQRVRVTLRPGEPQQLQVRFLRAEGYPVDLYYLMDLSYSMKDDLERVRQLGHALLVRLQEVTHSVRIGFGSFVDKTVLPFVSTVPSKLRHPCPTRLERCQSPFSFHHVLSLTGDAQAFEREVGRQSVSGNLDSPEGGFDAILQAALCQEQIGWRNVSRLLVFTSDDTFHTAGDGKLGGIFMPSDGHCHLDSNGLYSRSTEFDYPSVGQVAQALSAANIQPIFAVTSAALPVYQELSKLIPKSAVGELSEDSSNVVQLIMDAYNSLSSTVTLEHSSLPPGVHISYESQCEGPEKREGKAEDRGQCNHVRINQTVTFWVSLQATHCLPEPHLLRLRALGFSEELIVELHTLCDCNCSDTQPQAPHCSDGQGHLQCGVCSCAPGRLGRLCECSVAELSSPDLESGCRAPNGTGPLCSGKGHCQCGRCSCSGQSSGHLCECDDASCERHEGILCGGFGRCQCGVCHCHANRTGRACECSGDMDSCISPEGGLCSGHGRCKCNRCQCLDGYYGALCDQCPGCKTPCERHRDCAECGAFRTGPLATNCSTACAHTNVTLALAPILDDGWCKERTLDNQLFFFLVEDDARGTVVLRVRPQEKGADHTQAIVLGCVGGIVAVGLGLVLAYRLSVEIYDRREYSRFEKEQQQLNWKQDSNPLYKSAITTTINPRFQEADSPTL
row,EC50 [nM],Structure (SMILES)
1,0.191,Cc1cc(N2CCOC[C@@H]2C(F)(F)F)cc(F)c1C(=O)N[C@@H](Cc1ccc(-n2c(=O)[nH]c3cnccc3c2=O)c2ncccc12)C(=O)O [Example 421]
2,1.19,CC[C@@H](Nc1cc(F)c(C(=O)N[C@@H](Cc2ccc(-c3c(C(F)(F)F)n(C)cc(C)c3=O)c3ncccc23)C(=O)O)c(F)c1)C(F)(F)F [Example 479]
3,0.116,Cc1cc(N2CCOC[C@@H]2C(F)(F)F)cc(F)c1C(=O)N[C@@H](Cc1ccc(-n2c(=O)c3cc(F)ncc3n(C)c2=O)c2ncccc12)C(=O)O [Example 420]
4,0.091,COc1cnc2c(=O)n(-c3ccc(C[C@H](NC(=O)c4c(C)cc(N5CCOC[C@@H]5C(F)(F)F)cc4F)C(=O)O)c4cccnc34)c(=O)n(C)c2c1 [Example 415]
5,0.307,Cc1cc(N2CCOC[C@@H]2C(F)(F)F)cc(F)c1C(=O)N[C@@H](Cc1ccc(-c2cc(C(F)(F)F)c(C)n(C)c2=O)c2ncccc12)C(=O)O [Example 448]
6,0.544,Cc1cc(C(F)(F)F)c(-c2ccc(C[C@H](NC(=O)c3c(F)cc(N4C[C@H]5C[C@H]5[C@@H]4C(F)(F)F)cc3F)C(=O)O)c3cccnc23)c(=O)n1C [Example 483]
7,0.25,Cc1nc(C)n(C)c(=O)c1-c1ccc(C[C@H](NC(=O)c2c(F)cc(N3CCOC[C@@H]3C(F)(F)F)cc2F)C(=O)O)c2cccnc12 [Example 440]
8,0.677,Cc1cc(N2CCCC[C@@H]2C(F)(F)F)cc(F)c1C(=O)N[C@@H](Cc1ccc(-c2nc(C)c(C)n(C)c2=O)c2ncccc12)C(=O)O [Example 453]
9,0.05,"Cc1cc(N2CCOC[C@@H]2C(F)(F)F)cc(F)c1C(=O)N[C@@H](Cc1ccc(-n2c(=O)c3ccncc3n(C)c2=O)c2ncccc12)C(=O)O [Example 356, (S)-2-(2-fluoro-6-methyl-4-((R)-3-(trifluoromethyl)morpholino)benzamido)-3-(8-(1-methyl-2,4-dioxo-1,4-dihydropyrido[3,4-d]pyrimidin-3(2H)-yl)quinolin-5-yl)propanoic acid]"
10,0.143,Cn1c(=O)c(-c2ccc(C[C@H](NC(=O)c3c(F)cc(N4CCOC[C@@H]4C(F)(F)F)cc3F)C(=O)O)c3cccnc23)nc2ccccc21 [Example 484]
11,0.238,Cc1cc(N2CCOC[C@@H]2C(F)(F)F)cc(F)c1C(=O)N[C@@H](Cc1ccc(-c2cnc(C)n(C)c2=O)c2ncccc12)C(=O)O [Example 467]
12,0.104,Cc1cc(N2CCOC[C@@H]2C(F)(F)F)cc(F)c1C(=O)N[C@@H](Cc1ccc(-n2c(=O)c3cc(F)c(-n4ccnc4)cc3n(C)c2=O)c2ncccc12)C(=O)O [Example 418]

# Same assay, conditions: Table 1; capture of α4β7 expressing RPM18866 cells on MadCAM-1 extracellular domain-coated plate
row,EC50 [nM],Structure (SMILES)
1,13.6,"CC[C@@H](Nc1cc(F)c(C(=O)N[C@@H](Cc2ccc(-c3ccc(C#N)cc3Cl)c3ncccc23)C(=O)O)c(F)c1)C(F)(F)F [Example 74, (S)-3-(8-(2-chloro-4-cyanophenyl)quinolin-5-yl)-2-(2,6-difluoro-4-(((R)-1,1,1-trifluorobutan-2-yl)amino)benzamido)propanoic acid]"
2,0.1,"CC[C@@H](Nc1cc(F)c(C(=O)N[C@@H](Cc2ccc(-c3c(C(F)(F)F)c4ccncc4n(C)c3=O)c3ncccc23)C(=O)O)c(F)c1)C(F)(F)F [Example 111, (S)-2-(2,6-difluoro-4-(((R)-1,1,1-trifluorobutan-2-yl)amino)benzamido)-3-(8-(1-methyl-2-oxo-4-(trifluoromethyl)-1,2-dihydro-1,7-naphthyridin-3-yl)quinolin-5-yl)propanoic acid]"
3,7,"Cc1cc(C(F)(F)F)c(-c2ccc(C[C@H](NC(=O)c3c(F)cccc3F)C(=O)O)c3cccnc23)nc1C [Example 12, (S)-2-(2,6-difluorobenzamido)-3-(8-(5,6-dimethyl-3-(trifluoromethyl)pyridin-2-yl)quinolin-5-yl)propanoic acid]"
4,0.6,"CC[C@@H](Nc1cc(F)c(C(=O)N[C@@H](Cc2ccc(-c3c(C)n(C)c(=O)n(C)c3=O)c3ncccc23)C(=O)O)c(F)c1)C(F)(F)F [Example 114, (S)-2-(2,6-difluoro-4-(((R)-1,1,1-trifluorobutan-2-yl)amino)benzamido)-3-(8-(1,3,6-trimethyl-2,4-dioxo-1,2,3,4-tetrahydropyrimidin-5-yl)quinolin-5-yl)propanoic acid]"
5,25.4,"N#Cc1ccc(-c2ccc(C[C@H](NC(=O)c3c(F)cc(N4CCO[C@H](C(F)(F)F)C4)cc3F)C(=O)O)c3cccnc23)c(Cl)c1 [Example 85, (S)-3-(8-(2-chloro-4-cyanophenyl)quinolin-5-yl)-2-(2,6-difluoro-4-((S)-2-(trifluoromethyl)morpholino)benzamido)propanoic acid]"
6,0.7,"CC[C@@H](Nc1cc(F)c(C(=O)N[C@@H](Cc2ccc(-c3nc(C)c(C)n(C)c3=O)c3ncccc23)C(=O)O)c(F)c1)C(F)(F)F [Example 117, (S)-2-(2,6-difluoro-4-(((R)-1,1,1-trifluorobutan-2-yl)amino)benzamido)-3-(8-(4,5,6-trimethyl-3-oxo-3,4-dihydropyrazin-2-yl)quinolin-5-yl)propanoic acid]"
7,0.3,"COc1cc(C)n(C)c(=O)c1-c1ccc(C[C@H](NC(=O)c2c(F)cc(N3CCOC[C@@H]3C(F)(F)F)cc2F)C(=O)O)c2cccnc12 [Example 102, (S)-2-(2,6-difluoro-4-((R)-3-(trifluoromethyl)morpholino)benzamido)-3-(8-(4-methoxy-1,6-dimethyl-2-oxo-1,2-dihydropyridin-3-yl)quinolin-5-yl)propanoic acid]"
8,0.2,"Cc1cc(C(F)(F)F)c(-c2ccc(C[C@H](NC(=O)c3c(F)cc(N4CCOC[C@@H]4C(F)(F)F)cc3F)C(=O)O)c3cccnc23)c(=O)n1C [Example 96, (S)-2-(2,6-difluoro-4-((R)-3-(trifluoromethyl)morpholino)benzamido)-3-(8-(1,6-dimethyl-2-oxo-4-(trifluoromethyl)-1,2-dihydropyridin-3-yl)quinolin-5-yl)propanoic acid]"

row,Structure (SMILES),EC50 [nM]
1,"O=C(N[C@@H](Cc1ccc(-c2ncccn2)c2ncccc12)C(=O)O)c1c(F)cc(NS(=O)(=O)c2ccc(-c3ccnc(F)c3)cc2)cc1F [Example 58, (S)-2-(2,6-difluoro-4-((4-(2-fluoropyridin-4-yl)phenyl)sulfonamido)benzamido)-3-(8-(pyrimidin-2-yl)quinolin-5-yl)propanoic acid]",2
2,"Cc1cc(N2CCC2)c(-c2ccc(C[C@H](NC(=O)c3c(F)cc(N4CCOC[C@@H]4C(F)(F)F)cc3F)C(=O)O)c3cccnc23)c(=O)n1C [Example 103, (S)-3-(8-(4-(azetidin-1-yl)-1,6-dimethyl-2-oxo-1,2-dihydropyridin-3-yl)quinolin-5-yl)-2-(2,6-difluoro-4-((R)-3-(trifluoromethyl)morpholino)benzamido)propanoic acid]",0.7

# Same assay, conditions: Table 2; capture of α4β7 expressing RPM18866 cells on MadCAM-1 extracellular domain-coated plate
row,EC50 [nM],Structure (SMILES)
1,80.1,CC(=O)c1cc(F)c(C(=O)N[C@@H](Cc2ccc(-c3ccc(C#N)cc3Cl)c3ncccc23)C(=O)O)c(F)c1 [Example 241]
2,0.3,COc1c(-c2ccc(C[C@H](NC(=O)c3c(F)cc(N[C@H](C)C(F)(F)F)cc3F)C(=O)O)c3cccnc23)c(=O)n(C)c2ccccc12 [Example 156]
3,17.1,N#Cc1ccc(-c2ccc(C[C@H](NC(=O)c3c(Cl)cc4nc[nH]c4c3Cl)C(=O)O)c3cccnc23)c(Cl)c1 [Example 323]
4,24.1,N#Cc1ccc(-c2ccc(C[C@H](NC(=O)c3c(F)cc(N[C@H](C4CCC4)C(F)(F)F)cc3F)C(=O)O)c3cccnc23)c(Cl)c1 [Example 333]
5,3,CC(C)c1cccnc1-c1ccc(C[C@H](NC(=O)c2c(F)cc(N3CCOC[C@@H]3C(F)(F)F)cc2F)C(=O)O)c2cccnc12 [Example 248]
6,15.1,O=C(N[C@@H](Cc1ccc(-c2nccc(C(F)(F)F)n2)c2ncccc12)C(=O)O)c1c(F)cc(N2CCOC[C@@H]2C(F)(F)F)cc1F [Example 189]
7,26.2,N#Cc1ccc(-c2ccc(C[C@H](NC(=O)c3c(F)cc(NC(=O)c4ccccc4C(F)(F)F)cc3F)C(=O)O)c3cccnc23)c(Cl)c1 [Example 337]
8,4.3,CC[C@@H](Nc1cc(F)c(C(=O)N[C@@H](Cc2ccc(-c3cc(N(C)C)c(C)n(C)c3=O)c3ncccc23)C(=O)O)c(F)c1)C(F)(F)F [Example 268]
9,1.7,COc1c(-c2ccc(C[C@H](NC(=O)c3c(F)cc(N4CCOC[C@H]4C(F)(F)F)cc3F)C(=O)O)c3cccnc23)c(=O)n(C)c2ccccc12 [Example 205]
10,1.6,Cc1c(-c2ccc(C[C@H](NC(=O)c3c(F)cc(CS(=O)(=O)c4ccccc4)cc3F)C(=O)O)c3cccnc23)c(=O)n(C)c(=O)n1C [Example 203]
11,2.6,Cc1c(-c2ccc(C[C@H](NC(=O)c3c(F)cc(N4CCS(=O)(=O)[C@H](C)C4)cc3F)C(=O)O)c3cccnc23)c(=O)n(C)c(=O)n1C [Example 237]
12,2.9,Cc1cc(C(F)(F)F)c(-c2ccc(C[C@H](NC(=O)c3c(F)cc(N4C[C@H](C)OC[C@H]4C)cc3F)C(=O)O)c3cccnc23)c(=O)n1C [Example 243]
13,77,N#Cc1ccc(-c2ccc(C[C@H](NC(=O)c3c(F)cc(C(=O)N[C@H]4C[C@@H](O)C4)cc3F)C(=O)O)c3cccnc23)c(Cl)c1 [Example 267]
14,0.9,CC[C@@H](Nc1cc(F)c(C(=O)N[C@@H](Cc2ccc(-c3cc4ccccc4n(C)c3=O)c3ncccc23)C(=O)O)c(F)c1)C(F)(F)F [Example 182]
15,44.6,C[C@@H](NC(=O)c1cc(F)c(C(=O)N[C@@H](Cc2ccc(-c3ccc(C#N)cc3Cl)c3ncccc23)C(=O)O)c(F)c1)C(F)(F)F [Example 154]
16,13.7,O=C(N[C@@H](Cc1ccc(NC(=O)c2c(Cl)cncc2Cl)c2ncccc12)C(=O)O)c1c(F)cccc1F [Example 316]
17,43.6,N#Cc1ccc(-c2ccc(C[C@H](NC(=O)c3c(F)cc(C4=CCOCC4)cc3F)C(=O)O)c3cccnc23)c(Cl)c1 [Example 150]

row,Structure (SMILES),EC50 [nM]
1,"CC[C@@H](Nc1cc(F)c(C(=O)N[C@@H](Cc2ccc(-c3c(C(F)(F)F)c4cc(N(C)C)ccc4n(C)c3=O)c3ncccc23)C(=O)O)c(F)c1)C(F)(F)F (atropisomer, axis not shown) [Example 168]",0.5
